Patent US8445691B2, “Heterocyclic thiosubstituted alkanol derivatives” (Bayer CropScience AG, priority 2010, dated 2013)

What was measured:
[1] = system: Blumeria graminis f.sp. hordei; assay: Blumeria graminis test (barley) / protective; assay type: in vivo; details: 500 ppm active ingredient, protective spray on young barley plants, evaluation 7 days after inoculation; 0% = control, 100% = no infection
Procedure: Blumeria graminis Test (Barley)/Protective
(§1) • Solvent: 49 parts by weight of N,N-dimethylacetamide • Emulsifier: 1 part by weight of alkylaryl polyglycol ether
To produce an appropriate active ingredient formulation, 1 part by weight of active ingredient is mixed with the specified amounts of solvent and emulsifier, and the concentrate is diluted with water to the desired concentration. To test for protective activity, young plants are sprayed with the formulation of active ingredient at the stated application rate. After the spray coating has dried on, the plants are dusted with spores of Blumeria graminis f.sp. hordei. The plants are placed in a greenhouse at a temperature of about 18° C. and a relative air humidity of about 80% to promote the development of mildew pustules. Evaluation follows 7 days after the inoculation. 0% means an efficacy which corresponds to that of the control, whereas an efficacy of 100% means that no infection is observed.

Leptosphaeria nodorum = Leptosphaeria nodorum test (wheat) / protective; assay type: in vivo; details: 500 ppm active ingredient, protective spray on young wheat plants, evaluation 8 days after inoculation; 0% = control, 100% = no infection
Procedure: Leptosphaeria nodorum Test (Wheat)/Protective
as §1
To produce an appropriate active ingredient formulation, I part by weight of active ingredient is mixed with the specified amounts of solvent and emulsifier, and the concentrate is diluted with water to the desired concentration. To test for protective activity, young plants are sprayed with the formulation of active ingredient at the stated application rate. After the spray coating has dried on, the plants are sprayed with spores with a spore suspension of Leptosphaeria nodorum. The plants remain in an incubation cabin at 20° C. and 100% relative air humidity for 48 hours. The plants are placed in a greenhouse at a temperature of about 22° C. and a relative air humidity of about 80%. Evaluation follows 8 days after the inoculation. 0% means an efficacy which corresponds to that of the control, whereas an efficacy of 100% means that no infection is observed.

[2] = logP by reversed-phase HPLC (EEC Directive 79/831 Annex V.A8); assay type: physicochemical; details: method [a]: LC-MS, acidic range pH 2.7, 0.1% aqueous formic acid / acetonitrile, linear gradient 10% to 95% acetonitrile
Procedure: The logP values were measured in accordance with EEC Directive 79/831 Annex V.A8 by HPLC (High Performance Liquid Chromatography) using reversed-phase columns (C 18) by the following methods:
[a] The LC-MS determination in the acidic range is effected at pH 2.7 with 0.1% aqueous formic acid and acetonitrile (contains 0.1% formic acid) as eluents; linear gradient from 10% acetonitrile to 95% acetonitrile.

Sphaerotheca fuliginea = assay: Sphaerotheca test (cucumber) / protective; assay type: in vivo; details: 500 ppm active ingredient, protective spray on young cucumber plants, evaluation 7 days after inoculation; 0% = control, 100% = no infection
Procedure: Sphaerotheca Test (Cucumber)/Protective
(§2) • Solvent: 49 parts by weight of N,N-dimethylformamide • Emulsifier: 1 part by weight of alkylaryl polyglycol ether
To produce an appropriate active ingredient formulation, 1 part by weight of active ingredient is mixed with the specified amounts of solvent and emulsifier, and the concentrate is diluted with water to the desired concentration. To test for protective activity, young cucumber plants are sprayed with the formulation of active ingredient at the stated application rate. 1 day after the treatment, the plants are inoculated with a spore suspension of Sphaerotheca fuliginea. The plants are then placed in a greenhouse at 70% relative air humidity and a temperature of 23° C. Evaluation follows 7 days after the inoculation. 0% means an efficacy which corresponds to that of the control, whereas an efficacy of 100% means that no infection is observed.

Alternaria solani = assay: Alternaria test (tomato) / protective; assay type: in vivo; details: 500 ppm active ingredient, protective spray on young tomato plants, evaluation 7 days after inoculation; 0% = control, 100% = no infection
Procedure: Alternaria Test (Tomato)/Protective
as §2
To produce an appropriate active ingredient formulation, 1 part by weight of active ingredient is mixed with the specified amounts of solvent and emulsifier, and the concentrate is diluted with water to the desired concentration. To test for protective activity, young tomato plants are sprayed with the active ingredient formulation at the stated application rate. One day after the treatment, the plants are inoculated with a spore suspension of Alternaria solani and are then left to stand at 100% relative humidity and 22° C. for 24 h. Subsequently, the plants are left to stand at 96% relative air humidity and a temperature of 20° C. Evaluation follows 7 days after the […]. 0% means an efficacy which corresponds to that of the control, whereas an efficacy of 100% means that no infection is observed.

| chromatographic logP ([2]; reversed-phase C18 HPLC column) | logP ([2]; C18 reversed phase) | Compound | efficacy [1] | efficacy (Leptosphaeria nodorum) | efficacy (Sphaerotheca fuliginea) | efficacy (Alternaria solani) |
| --- | --- | --- | --- | --- | --- | --- |
|  |  | CC(C)(C)C(O)(CSc1ccc(Br)cc1)c1cncs1 (stereo not shown) [Compound 1, 1-[(4-bromophenyl)sulphanyl]-3,3-dimethyl-2-(1,3-thiazol-5-yl)butan-2-ol] | 89% | 92% |  |  |
| 3.27 |  | CC(CF)(CF)C(O)(CSc1ccc(Br)cc1)c1cncs1 (stereo not shown) [Compound 3] | 100% | 100% |  |  |
|  | log p 3.76^[a] | CC(C)(C)C(O)(CSc1ccc(C(F)(F)F)cc1)c1cncs1 (stereo not shown) [Compound 57] | 80% | 90% | 80% | 100% |
